Where two headings read alike, the source gives them in different places.
Key:
D2 receptors = target: T1, D2 receptors (Rattus norvegicus, UniProt P61169); experiment: D2 antagonist binding ([3H]-spiperone), rat striatum
T1 construct: Preparation of rat striatal membranes for (3H)-spiperone; from tissue; host or cells: rat striatum (striatal membranes)
Procedure: D2 antagonist binding. Preparation of rat striatal membranes for (3H)-spiperone (specific activity 21-24 Ci/mmol) binding was carried out in a similar manner as described for D1-binding, Hyttel et al., J. Neural. Transm., 68, 171 (1987).
IC50 values were calculated by semi-log plot and linear regression analysis.

5-HT1A = target: T2, 5-HT1A (Rattus norvegicus, UniProt P19327); experiment: 5-HT1A radioligand binding ([3H]-8-OH-DPAT); set-up: species or system rat (male Sprague-Dawley); conditions: [3H]-8-OH-DPAT, rat cortex; read-out: in vitro binding IC50, 5HT1A
T2 construct: the whole brain with the exception of the brainstem and cerebellum was rapidly removed; from tissue
T2 sequence (P19327 1-422): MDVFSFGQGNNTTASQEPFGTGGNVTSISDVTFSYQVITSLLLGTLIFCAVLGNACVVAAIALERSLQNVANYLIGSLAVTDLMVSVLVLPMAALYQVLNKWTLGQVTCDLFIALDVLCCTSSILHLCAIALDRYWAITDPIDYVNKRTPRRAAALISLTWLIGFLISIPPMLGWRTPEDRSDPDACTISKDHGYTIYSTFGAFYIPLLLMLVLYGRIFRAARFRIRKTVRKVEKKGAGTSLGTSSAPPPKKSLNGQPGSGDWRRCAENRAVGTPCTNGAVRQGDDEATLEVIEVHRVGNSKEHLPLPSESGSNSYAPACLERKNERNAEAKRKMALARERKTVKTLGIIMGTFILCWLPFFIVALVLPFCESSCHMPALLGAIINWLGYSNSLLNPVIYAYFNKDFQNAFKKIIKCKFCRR
Procedure: ^b Serotonin 5HT1A ([^3 H]-8OH-DPAT, agonist) rat cortex.
5-HT1A radioligand binding. Male Sprague-Dawley rats (160-225 g) were killed by decapitation and the whole brain with the exception of the brainstem and cerebellum was rapidly removed, weighed and chilled in ice-cold 0.9% NaCl. Each brain was homogenized (Ultra-Turrax, 20 s) in 10 mL ice-cold 50 mM Tris buffer (pH 8.0 at 25° C.) containing 120 mM NaCl, 4 mM CaCl2 and 4 mM MgCl2 and centrifuged at 20,000 g's at 4° C. for 10 minutes. Pellets were resuspended in 10 mL fresh buffer and preincubated for 10 minutes in a 37° C. waterbath and then recentrifuged. Final pellets were homogenized in 100 volumes (w/v) of Tris buffer (as described above) containing 10 μM pargyline. The incubation tubes were kept on ice in triplicates and received 100 μL drug solution in water (or water for total binding) and 1000 μL membrane suspension (corresponds to 10 mg original tissue). The binding experiment was initiated by addition of 100 μL of (3H)-8-OH-DPAT (specific activity 143-158 Ci/mmol) in ascorbic acid (the final incubation concentration was 1 nM (3H)-8-OH-DPAT in 0.1% ascorbic acid). After incubation for 15 minutes at 37° C. the reaction was terminated by separation of the free radioligand from bound by rapid vacuum filtration using a cell harvester equipment (O. M. Teknik, Denmark). The tubes were rinsed with 4 mL and the filters (Whatman GF/F 25 mm) were washed twice with 4 mL ice-cold 0.9% NaCl.
The radioactivity of the filters was measured in a liquid scintillation counter (efficiency 41%) in 5 mL Picofluor®. Specific binding (70-75% of total binding) was defined as the radioactivity displaced by 10 μM 5-HT. IC50 values were calculated by semi-log plot and linear regression analysis.

DA receptor [1] = experiment: DA metabolism (DOPAC, HVA levels) in habituated rats; assay type: in vivo, rat (male Sprague-Dawley); conditions: Rattus norvegicus, 1 h
Procedure: (§1) Footnotes Table 3. The rats were habituated to the motility meters 60 min
The rats were immediately killed after the activity session, striata
(§2) and limbic levels of DOPAC and 5HIAA were measured by means of HPLCEC. *p
(§3) In the experiments with habituated rats no NSD was administered and the animals were killed one hour after drug administration. […] The levels were expressed as % of controls (DOPAC and 5-HIAA see Table 3). The in vivo brain microdialysis experiments were performed in conscious rats as described by Waters et al., Eur. J. Pharm., 187, 425-34 (1990).
(§4) Injection volumes were 5 mL/kg.
After the activity session the rats were killed and the brain levels of HVA and DOPAC were measured (data are expressed as means ±SEM).

habituated rats = experiment: Locomotor activity and behavior in habituated rats; assay type: in vivo, rat (male Sprague-Dawley); conditions: 100 μmol/kg sc, habituated rats; for response vs control in vivo at 100 µmol/kg: Rattus norvegicus, 1 h, 60 min, read-out: Motor Activity
Procedure: as §1
prior to the activity session.
as §4
Locomotor activity was measured in rats which were habituated 60 minutes to the activity meters before drug injection. The activity was measured for the subsequent 60 minutes and expressed as % of controls (means ±SEM, n=4).

5-HT receptor [2] = experiment: 5-HT metabolism (5-HIAA levels) in habituated rats; assay type: in vivo, rat (male Sprague-Dawley); conditions: 100 μmol/kg sc
Procedure: as §1
SEM. The rats were immediately killed after the activity session, striata
as §2, §3
Injection volumes were 5 mL/kg. […]

5-HT receptor [3] = experiment: 5-HTP accumulation (5-HT synthesis rate) in non-pretreated rats after NSD 1015; assay type: in vivo, rat (male Sprague-Dawley)
Procedure: observations are commented to the right. After the session the rats were
accumulation in the NErich cortical regions and 5HTP in the limbic
as §4

DA receptor [4] = experiment: DOPA accumulation (DA synthesis rate) in non-pretreated rats after NSD 1015
Procedure: injected with NSD 1015 (100 mg/kg, i.p.) and then killed 30 min later.
In-vivo determination of rat brain monoamine metabolites and tyrosine and tryptophan hydroxylation (biochemically monitored DA and 5-HT receptor agonist or antagonist activity).
The compounds under evaluation were tested biochemically for central DA and 5-HT receptor (pre- and/or postsynaptic) stimulating and/or blocking activity. The concept of this biochemical screening method is that a DA or 5-HT receptor agonist will stimulate the receptor and through regulatory negative feed-back systems induce a decline in tyrosine or tryptophan hydroxylating activity, respectively, and a subsequent reduction in the synthesis rate of DA and 5-HT in the presynaptic neuron. […] The biochemical experiments and the determinations of Dopa and 5-HTP by means of HPLC with electrochemical detection were performed. The antagonistic effects were seen as increases in the synthesis rate (n=4), as a result of the positive feed-back upregulation of synthesis. The effects on Dopa and 5-HTP accumulation are expressed as % of controls, which were: DOPA limbic system=447±23 ng/g and DOPA striatum=1045±47ng/g, 5-HTP limbic region 241±2 ng/g (Table 2).
(§5) Animals used in the biochemical and motor activity experiments were male rats of the Sprague-Dawley strain (ALAB, Sollentuna, Sweden), weighing 200-300 g. The rats were kept 5 per cage with free access to water and food (except for the starved animals for the experiments with per oral administration, who were only allowed water the last 18 hours before testing), at least one week from arrival until used in the experiments.
(§6) All substances to be tested were dissolved in saline immediately before use, occasionally with the addition of a few drops of glacial acetic acid and/or moderate heating in order to obtain complete dissolution. Injection volumes were 5 mL/kg.
Analysis of variance (ANOVA) followed by Fischer's test was used for the statistical calculations. P values less than 0.05 were regarded statistically significant.
DOPA accumulation (DA synthesis rate) in non-pretreated rats (Table 2). After the locomotor activity session (see Table 2, above) the rats were injected with the decarboxylase inhibitor NSD 1015 (100 mg/kg, sc) and killed 30 minutes later. The DOPA accumulation in the DA -rich limbic and striatal and the NE-rich cortical (mainly hemispheres) brain areas were expressed as % of saline treated controls.
DOPA accumulation, time course after s.c. and p.o. administration (Table 2). […] NSD 1015 (100 mg/kg, sc) was injected 30 minutes before death. The data are expressed as % of saline treated controls.

non-pretreated rats = experiment: Locomotor activity and gross behavior in non-habituated (non-pretreated) rats; conditions: non-pretreated rats; for Motor Act.: 30 min
Source text: Immediately after drug administration, the rats were placed in the test cages (one rat/cage) and put into the motility meters. […] Observations of gross behavior were made throughout the activity sessions through semi-transparent mirrors.
as §5, §6
Analysis of variance (ANOVA) followed by Fischer's test was used for the statistical calculations.
In vivo behavioral data was obtained with rats injected with drug and 5 minutes later put into the motility chambers for the first time. The motor activity was measured for the subsequent 30 minutes (accumulated counts/30 minutes) and expressed as % of saline treated controls.

[5] = [3H]-spiperone, rat striatum, read-out: in vitro binding IC50, D2 -spip

T1 sequence (P61169 whole entry): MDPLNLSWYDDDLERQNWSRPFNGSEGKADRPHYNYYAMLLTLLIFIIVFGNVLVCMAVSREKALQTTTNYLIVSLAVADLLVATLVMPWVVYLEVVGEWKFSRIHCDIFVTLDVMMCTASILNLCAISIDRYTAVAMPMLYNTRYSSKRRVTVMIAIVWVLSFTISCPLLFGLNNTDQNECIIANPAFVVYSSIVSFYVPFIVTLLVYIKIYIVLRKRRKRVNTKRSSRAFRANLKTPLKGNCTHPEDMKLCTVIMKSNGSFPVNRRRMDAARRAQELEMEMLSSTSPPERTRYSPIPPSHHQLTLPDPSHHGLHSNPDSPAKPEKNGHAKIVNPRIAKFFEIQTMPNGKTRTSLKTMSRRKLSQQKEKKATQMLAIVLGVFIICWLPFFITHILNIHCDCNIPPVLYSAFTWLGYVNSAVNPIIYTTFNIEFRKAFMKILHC

Row | IC50 (D2 receptors; [5]) [µM] | SMILES | IC50 (5-HT1A) [µM] | response vs control in vivo at 100 µmol/kg (DA receptor [1]; sc, read-out: DOPAC striatum) [%] | Behavioral observations (habituated rats) | response vs control in vivo at 100 µmol/kg (DA receptor [1]; sc, read-out: DOPAC limbic) [%] | response vs control in vivo at 100 µmol/kg (habituated rats) [%] | also measured
1 |  | CC(C)N1CCC[C@@H](c2cccc(C#N)c2)C1 [Compound S-35, S-3-(3-Cyanophenyl-N-iso-propyl)piperidine] | 16 | 251 ± 18 | Activation |  |  | IC50 (D2 receptors; read-out: in vitro binding IC50, D2 -spip, [3H]-spiperone, rat striatum): 4.3 µM
2 |  | CCCN1CCCC(c2cccc(C#N)c2)C1 (racemic) [(+)-S-34] |  | 291 ± 16 |  | 207 ± 6 |  | 
3 | 0.89 | N#Cc1cccc([C@@H]2CCCN(CCc3cccs3)C2)c1 [Compound S-40, S-3-((3-Cyanophenyl)-N-(2-thiopheneethyl))piperidine] | 0.4 |  | Activation |  | 500 ± 92 | response vs control in vivo at 100 µmol/kg (DA receptor [1]; 100 μmol/kg sc, habituated rats, read-out: DOPAC limbic): 149 ± 17%; response vs control in vivo at 100 µmol/kg (DA receptor [1]; 100 μmol/kg sc, habituated rats, read-out: DOPAC striatum): 201 ± 4%
4 | 4 | CCCN1CCC(c2cccc(OS(=O)(=O)C(F)(F)F)c2)C1 (racemic) [Racemic-21, 3-((3-(Trifluoromethyl)sulfonyl)oxyphenyl-N-n-propyl)pyrrolidine] | 3.2 |  | No activation |  | 93 ± 18 | 
5 | 75 | CCCN1CCC[C@@H](c2cccc(C(N)=O)c2)C1 [S-(-)-29, S-(-)-3-(3-Carbamoylphenyl-N-n-propyl)piperidine] | 6.3 |  |  |  |  | 
6 |  | O=S(=O)(Oc1cccc([C@@H]2CCCN(CCc3ccccc3)C2)c1)C(F)(F)F [Compound S-18] | 0.23 |  |  |  |  | IC50 (D2 receptors): 0.24 µM
7 |  | N#Cc1cccc([C@@H]2CCCN(CC3CC3)C2)c1 [Compound S-38, S-3-(3-Cyanophenyl-N-cyclopropylmethyl)piperidine] | 7.9 |  |  | 221 ± 8 |  | 

Row | SMILES | IC50 (D2 receptors; [5]) [µM] | IC50 (5-HT1A) [µM] | response vs control in vivo at 100 µmol/kg (DA receptor [1]; sc, read-out: DOPAC striatum) [%] | Behavioral observations (habituated rats) | response vs control in vivo at 100 µmol/kg (DA receptor [1]; sc, read-out: DOPAC limbic) [%] | response vs control in vivo at 100 µmol/kg (habituated rats) [%] | also measured
8 | C=Cc1cccc([C@@H]2CCCN(CCC)C2)c1 [Compound S-41, S-3-(3-Vinylphenyl-N-n-propyl)piperidine] | 3.5 | 0.46 | 134 ± 13 | Activation | 136 ± 15 | 529 ± 204 | 5-HIAA limbic (5-HT receptor [2]): 92 ± 14 % of saline treated controls
9 | CN1CCC[C@@H](c2cccc(C#N)c2)C1 [S-(+)-32, S-(+)-3-(3-Cyanophenyl-N-methyl)piperidine] | 50 | 14 | 120 ± 5 |  | 110 ± 6 |  | 5-HTP acc Limbic Region (5-HT receptor [3]; 25 sc): 98 ± 7 % of saline controls; 5-HTP acc Limbic Region (5-HT receptor [3]; 100 sc): 78 ± 2 % of saline controls; DOPA acc Cortex (DA receptor [4]; 25 sc): 91 ± 5 % of saline controls; DOPA acc Stratium (DA receptor [4]; 25 sc): 132 ± 9 % of saline controls; DOPA acc Cortex (DA receptor [4]; 100 sc): 109 ± 12 % of saline controls; DOPA acc Stratium (DA receptor [4]; 100 sc): 215 ± 6 % of saline controls; Gross Behavioral Observations (non-pretreated rats; 25 sc): No change; Motor Act. (non-pretreated rats; 25 sc): 128 ± 27 % of saline controls; Motor Act. (non-pretreated rats; 100 sc): 79 ± 2 % of saline controls
